Test [1] has as its system cholinomimetic effects induced by carbachol. As to the kind of experiment: In vivo anticholinergic action: inhibition of carbachol-induced cholinomimetic effects. Also noted: species or system CD1 male mice. As to conditions: i.p.; for ED50 / ED (1 degree C): Mus musculus, ip, 0.5 h, carbachol 1 mg/kg s.c. 30 min later; for ED (1 degree C): rectal temperature, read-out: Body Temperature: dose able to increase by 1° C. the hypothermic effect induced by carbachol; for selective anticholinergic action in vivo: mice, in words. The procedure:
The anticholinergic activity of the compounds was determined by evaluating the capacity to inhibit cholinomimetic effects induced by carbachol. Atropine sulphate was used as reference product.
CD1 male mice are used weighing 25 to 30 g. They are divided into groups of 5 animals and treated by intraperitoneal route, in scaled doses, with the products or with 0.25% of Methocel for the controls. 10 animals are used for each dose. 30 minutes after the administration of the compounds, the mice are subcutaneously injected with 1 mg/kg of carbachol, dissolved in physiological serum.
Each animal was examined 30 minutes after the injection of carbachol to evaluate the presence of diarrhea, salivation and watering of the eyes; the body temperature was also measured using a thermocouple inserted 1.5 cm into the rectum.
For each compound, there was determined, and recorded in the following table, the dose able to inhibit, in 50% of the animals, the appearance of peripheral cholinomimetic symptoms induced by carbachol, and to increase by 1° C. the hypothermic effect induced by the cholinergic agent.

For a further test, the target named is adrenoreceptor beta 1 (Homo sapiens, UniProt P08588). As to the kind of experiment: Affinity for other receptors: adrenoreceptor beta 1. Format: binding. The settings on record: negligible affinity.
adrenoreceptor beta 1, sequence (P08588 whole entry): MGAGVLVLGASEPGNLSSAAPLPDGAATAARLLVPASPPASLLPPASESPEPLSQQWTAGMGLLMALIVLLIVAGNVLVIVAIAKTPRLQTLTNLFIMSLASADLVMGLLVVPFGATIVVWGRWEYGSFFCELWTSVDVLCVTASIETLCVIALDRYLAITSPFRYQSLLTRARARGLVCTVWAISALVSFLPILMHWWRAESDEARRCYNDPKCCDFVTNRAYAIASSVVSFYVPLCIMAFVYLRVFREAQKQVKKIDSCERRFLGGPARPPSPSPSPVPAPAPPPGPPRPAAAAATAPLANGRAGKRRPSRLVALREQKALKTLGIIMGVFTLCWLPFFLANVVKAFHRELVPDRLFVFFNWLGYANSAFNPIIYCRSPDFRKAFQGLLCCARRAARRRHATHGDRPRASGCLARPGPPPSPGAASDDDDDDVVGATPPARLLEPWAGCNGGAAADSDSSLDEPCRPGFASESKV
Test [2] relates to contractions induced by barium chloride, isolated ileum. The test is described as follows: Antagonism of barium chloride-induced contractions, isolated guinea-pig ileum. The settings on record: barium chloride 2×10^-4 M; contact time one minute; read-out: Antagonism with various agents (IC50): BaCL2. The procedure:
The interaction of the compounds with various receptors was evaluated on the isolated ileum of a guinea-pig according to the following method.
Segments of the ileum of guinea-pigs of 2.5-3 cm were washed and immediately suspended in a bath containing 10 ml of Tyrode's solution at 37° C. and aerated with a mixture of oxygen (95%) and carbon dioxide (5%). After a stabilization period of at least 30 minutes contractions were recorded, while the preparation was maintained under constant tension of 1 g, by means of a detector connected to a polygraph. The agonistic action was evaluated by leaving the compound in contact with the isolated tissue for a period necessary to show the maximum […]; then it was washed with the Tyrode's solution. The following dose was added only after the preparation had returned to its base line. Arecoline was used as a reference product. The antagonist action was evaluated on the contractions induced by acetylcholine (1×10^-6 M), histamine (1×10^-5 M), serotonine (1×10^-6 M) and barium chloride (2×10^-4 M). […] The contact time before adding the agonist was one minute.
For each compound the does response curves are obtained with 4 to 6 different concentrations and 3 to 5 independent tests. The agonist activity is expressed by pD2 (negative logarithm of the dose which produces 50% of the maximum effect).

In another test the target is adrenoreceptor alpha 2. As to the kind of experiment: Affinity for other receptors: adrenoreceptor alpha 2. Format: binding. The settings on record: negligible affinity.
The target of another test is opiated receptor mu (Homo sapiens, UniProt P35372). The test is described as follows: Affinity for other receptors: opiated receptor mu. Format: binding. As to conditions: negligible affinity.
opiated receptor mu, sequence (P35372 whole entry): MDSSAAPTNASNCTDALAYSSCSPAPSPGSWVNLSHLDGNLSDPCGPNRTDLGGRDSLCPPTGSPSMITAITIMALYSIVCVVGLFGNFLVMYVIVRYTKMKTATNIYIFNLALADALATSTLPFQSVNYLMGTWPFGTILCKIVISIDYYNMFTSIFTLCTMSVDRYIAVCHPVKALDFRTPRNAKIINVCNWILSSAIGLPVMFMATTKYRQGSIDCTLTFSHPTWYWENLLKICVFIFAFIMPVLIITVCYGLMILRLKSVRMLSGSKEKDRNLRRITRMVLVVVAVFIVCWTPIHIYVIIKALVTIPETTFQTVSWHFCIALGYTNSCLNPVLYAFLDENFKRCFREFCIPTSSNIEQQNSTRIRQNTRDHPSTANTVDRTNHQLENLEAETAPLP
Test [3] concerns the target serotonine 5 HT1 receptor. As to the kind of experiment: Affinity for other receptors: serotonine 5 HT1. Format: binding. As to conditions: negligible affinity.
Test [4] concerns the target T1, muscarine receptors, involved in the contractions of the colon (Rattus norvegicus, UniProt P08483).
T1 construct: segments of the colon of rats of about 2.5 cm; from tissue; host or cells: isolated rat colon segments
As to the kind of experiment: Antagonist affinity and type of antagonism (Schild), isolated colon of rat. As to conditions: for "Slope" of Schild plot, isolated colon of rat / Kb: cumulative acetylcholine, Schild's method, contact 5 min; for Kb: read-out: pA2, isolated colon of rat (converted); for displacement of the dose-response curve of acetylcholine: isolated colon of rat, in words. Here is the method:
The following method was used: segments of the colon of rats of about 2.5 cm are washed and suspended in an insulated bath containing 10 ml of a solution of De Jalon having the following composition: (mM): NaCl 154; KCl 5.7; CaCl2 0.27; NaHCO3 5.9 and glucose 2.5. The temperature of the bath is maintained at 32° C. In these conditions, while maintaining the preparation under a tension of 1 g, the spontaneous activity of the colon is minimal. After a stabilization period of at least 30 minutes, the tension variations are recorded using an isometric transducer connected to a recorder. A series of tests was carried out to evaluate the antagonist activity in relation to the contractions induced by a maximum dose of acetylcholine. (3×10^-6 M).
For each compound the dose-response curves are obtained with 4 to 6 different concentrations and 3 to 5 independent tests.
In a second series of tests the acetylcholine is added to the bath in cumulative doses according to the van Rossum method (J. M. van Rossum, Arch, Int. Pharmacodyn. 143, 299, 1963). Having obtained two equal and consecutive dose-response curves with acetylcholine, a third dose-responsecurve is obtained in the presence of the compound (contact time of compound before acetylcholine=5 min.) Each compound was tested with 3-4 different concentrations
The antagonist affinity and the type of antagonism (competitive, non-competitive) for the muscarine receptors was calculated according to Schild's method (H. D. Schild, Brit. J. Pharmacol. 2, 189, 1947).

Setting [5] is: read-out: dose able to inhibit, in 50% of the animals, Diarrhea.
Setting [6] is: read-out: dose able to inhibit, in 50% of the animals, Salivation.
Setting [7] is: read-out: dose able to inhibit, in 50% of the animals, Watering of Eyes.

Read-outs that look alike come from different tables or passages of the source.

T1 sequence (P08483 whole entry): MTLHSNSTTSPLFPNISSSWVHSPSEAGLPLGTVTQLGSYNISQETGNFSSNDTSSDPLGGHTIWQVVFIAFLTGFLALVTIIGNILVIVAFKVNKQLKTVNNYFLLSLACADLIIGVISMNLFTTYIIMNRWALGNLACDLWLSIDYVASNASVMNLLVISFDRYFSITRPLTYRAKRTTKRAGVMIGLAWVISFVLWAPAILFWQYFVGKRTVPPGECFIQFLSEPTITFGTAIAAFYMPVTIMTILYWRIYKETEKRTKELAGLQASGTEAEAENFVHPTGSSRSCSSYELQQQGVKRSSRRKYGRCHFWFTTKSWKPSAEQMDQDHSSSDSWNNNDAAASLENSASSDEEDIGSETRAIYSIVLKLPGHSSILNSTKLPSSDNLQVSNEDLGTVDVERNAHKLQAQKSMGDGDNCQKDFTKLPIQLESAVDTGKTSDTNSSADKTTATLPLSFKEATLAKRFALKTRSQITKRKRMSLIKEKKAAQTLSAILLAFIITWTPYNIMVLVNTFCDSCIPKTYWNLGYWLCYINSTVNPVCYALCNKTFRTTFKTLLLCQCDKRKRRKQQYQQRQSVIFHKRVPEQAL

As to `CC(C)(C)c1ccc(S(=O)(=O)N2CCCC2=O)cc1` [Example 1, 1-(4-tert-butylbenzenesulphonyl)-2-pyrrolidinone], the ED50 in test [1] (setting [5]) is 7 mg/kg; in test [1] (setting [6]), 10 mg/kg; in test [1] (setting [7]), more than 50 mg/kg. The ED (1 degree C) in test [1] was 50 mg/kg. Further, in test [1], the “selective anticholinergic action in vivo” value is recorded as “selective anticholinergic action on the intestinal musculature”. The IC50 against adrenoreceptor beta 1 was 5 to 10 µM; in test [2], 16 µM; at adrenoreceptor alpha 2, 5 to 10 µM; at opiated receptor mu, 5 to 10 µM; in test [3], 5 to 10 µM. In test [4], the “"Slope" of Schild plot, isolated colon of rat” value stood at 0.89. Moreover, the Kb in test [4] is 0.017 µM. Besides, the “displacement of the dose-response curve of acetylcholine” value in test [4] was “parallel displacement towards the right of the dose-response curve of acetyl-choline without reducing the maximum contraction”.

Take `CCN(CC)c1ccc(S(=O)(=O)N2CCCC2=O)cc1` [Example 2, 1-[4-(diethylamino)benzenesulphonyl]-2-pyrrolidinone]: the values for the ED50 in test [1] (setting [5]), in test [1] (setting [6]) and in test [1] (setting [7]) were 7 mg/kg, more than 50 mg/kg and more than 50 mg/kg, respectively. The ED (1 degree C) in test [1] is more than 50 mg/kg. Further, in test [1], the “selective anticholinergic action in vivo” value is listed as “selective anticholinergic action on the intestinal musculature”. Further, the half-inhibitory concentration (IC50) at adrenoreceptor beta 1 was 5 to 10 µM; in test [2], 6 µM; on adrenoreceptor alpha 2, 5 to 10 µM; at opiated receptor mu it was 5 to 10 µM; in test [3], 5 to 10 µM. The “"Slope" of Schild plot, isolated colon of rat” value in test [4] amounted to 1.08. In addition, the Kb in test [4] was 0.0447 µM. The “displacement of the dose-response curve of acetylcholine” value in test [4] is recorded as “parallel displacement towards the right of the dose-response curve of acetyl-choline without reducing the maximum contraction”.

As usually defined, the IC50 is the point on the concentration scale where inhibition reaches its midpoint.
